The values that follow come from patent publication US11702404B2, “GLP-1R modulating compounds” (priority 2019, dated 2023).

Where two headings read alike, the source gives them in different places.

Series [1] can be described thus: Microsomal stability, human liver microsomes (predicted hepatic clearance). The settings on record: predicted from in vitro microsomal stability data.
Another series has as its target GLP-1R (Homo sapiens, UniProt P43220). The series can be described thus: GLP-1R activation: cAMP increase in CHO cells stably expressing GLP-1R. Type of series: cell-based.
Setting [2] is: cAMP increase, CHO cells stably expressing GLP-1R, 10 point dose response, 30 minutes incubation, read-out: EC50.

GLP-1R, sequence (P43220 24-463): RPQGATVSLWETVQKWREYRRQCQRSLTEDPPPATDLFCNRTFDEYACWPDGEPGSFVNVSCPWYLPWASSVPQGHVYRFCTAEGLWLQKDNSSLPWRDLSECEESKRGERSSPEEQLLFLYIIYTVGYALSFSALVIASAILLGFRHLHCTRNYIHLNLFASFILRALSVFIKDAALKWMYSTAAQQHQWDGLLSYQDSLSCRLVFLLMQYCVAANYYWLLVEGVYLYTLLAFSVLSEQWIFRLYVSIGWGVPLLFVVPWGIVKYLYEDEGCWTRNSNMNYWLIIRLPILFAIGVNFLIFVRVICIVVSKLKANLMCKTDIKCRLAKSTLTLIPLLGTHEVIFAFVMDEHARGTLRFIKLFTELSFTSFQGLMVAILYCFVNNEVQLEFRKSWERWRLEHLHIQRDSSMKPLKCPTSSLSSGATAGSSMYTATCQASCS

A word on the EC50: it is the concentration that produces a half-maximal response. `N#Cc1ccc(COc2cccc(-c3ccc(Cc4nc5ccc(C(=O)O)cc5n4C[C@@H]4CCN4C4COC4)c(F)c3)n2)c(F)c1` [Example 396, (S)-2-(4-(6-((4-cyano-2-fluorobenzyl)oxy)pyridin-2-yl)-2-fluorobenzyl)-1-((1-(oxetan-3-yl)azetidin-2-yl)methyl)-1H-benzo[d]imidazole-6-carboxylic acid]: in series [1], the “Predicted Hepatic Clearance (Pred. Cl.)” value is 8.67 mL/min/kg. Besides, the EC50 on GLP-1R (read-out: EC50) amounted to 45.5 nM.
For the compound `COCCn1c(Cc2ccc(-c3cccc(OCc4ccc(C#N)cc4OC4CC4)n3)cc2F)nc2ccc(C(=O)O)cc21` [Example 346, 2-(4-(6-((4-cyano-2-cyclopropoxybenzyl)oxy)pyridin-2-yl)-2-fluorobenzyl)-1-(2-methoxyethyl)-1H-benzo[d]imidazole-6-carboxylic acid], the “Predicted Hepatic Clearance (Pred. Cl.)” value in series [1] was 7.83 mL/min/kg. For the same compound, the EC50 at GLP-1R (setting [2]) was determined as 94.6 nM.
`COCCn1c(Cc2cc(F)c(-c3cccc(OCc4cccc(-c5ccn(C)n5)c4)n3)cc2F)nc2ccc(C(=O)O)cc21` [Example 914]: in series [1], the “Predicted Hepatic Clearance (Pred. Cl.)” value is 6 mL/min/kg. For the same compound, the EC50 on GLP-1R (setting [2]) is 51.5 nM.
On to `COC(CNC(C)=O)Cn1c(Cc2ccc(-c3cccc(OCc4ccc(C#N)cc4F)n3)cc2F)nc2ccc(C(=O)O)cc21` (single isomer, unassigned) [Example 341, 1-(3-acetamido-2-methoxypropyl)-2-(4-(6-((4-cyano-2-fluorobenzyl)oxy)pyridin-2-yl)-2-fluorobenzyl)-1H-benzo[d]imidazole-6-carboxylic acid], for which the “Predicted Hepatic Clearance (Pred. Cl.)” value in series [1] is 5.67 mL/min/kg. On GLP-1R (setting [2]), the EC50 was 19.7 nM.
For `N#Cc1ccc(COc2nccc(-c3cc(F)c(Cc4nc5c(F)cc(C(=O)O)cc5n4CC4(CF)CC4)cc3F)n2)c(F)c1` [Example 412, 2-(4-(2-((4-cyano-2-fluorobenzyl)oxy)pyrimidin-4-yl)-2,5-difluorobenzyl)-4-fluoro-1-((1-(fluoromethyl)cyclopropyl)methyl)-1H-benzo[d]imidazole-6-carboxylic acid] the same measures were less than 1.83 mL/min/kg and 0.33 nM.
For `COCCn1c(Cc2c(F)cc(-c3cccnc3OCc3ccc(C#N)cc3OC)cc2F)nc2ccc(C(=O)O)cc21` [Example 118, 2-(4-(2-((4-cyano-2-methoxybenzyl)oxy)pyridin-3-yl)-2,6-difluorobenzyl)-1-(2-methoxyethyl)-1H-benzo[d]imidazole-6-carboxylic acid], the “Predicted Hepatic Clearance (Pred. Cl.)” value in series [1] is 12 mL/min/kg. For the same compound, the half-maximal effective concentration (EC50) on GLP-1R (setting [2]) came to 6.01 nM.
For `COCCn1c(Cc2ccc(-c3cccc(OCc4ccc(C#N)cc4F)n3)c(C)c2)nc2ccc(C(=O)O)cc21` [Example 20, 2-{[4-[6-[(4-cyano-2-fluoro-phenyl)methoxy]-2-pyridyl]-3-methyl-phenyl]methyl}-3-(2-methoxyethyl)benzimidazole-5-carboxylic acid], in series [1], the “Predicted Hepatic Clearance (Pred. Cl.)” value was 2.33 mL/min/kg. Also, the response on GLP-1R (EC50 (nM)) was half-maximal at 24.1 nM (EC50).
As to `CC(C)(Cn1c(Cc2ccc(-c3cccc(OCc4ccc(C#N)cc4F)n3)cc2F)nc2ccc(C(=O)NS(=O)(=O)C3CC3)cc21)C(F)F` [Example 52, 2-(4-(6-((4-cyano-2-fluorobenzyl)oxy)pyridin-2-yl)-2-fluorobenzyl)-N-(cyclopropylsulfonyl)-1-(3,3-difluoro-2,2-dimethylpropyl)-1H-benzo[d]imidazole-6-carboxamide], in series [1], the “Predicted Hepatic Clearance (Pred. Cl.)” value is less than 1.83 mL/min/kg. Also, the EC50 at GLP-1R (setting [2]) was 56 nM.
For `COCCn1c(Cc2ccc(-c3cccc(OCc4ccc(C#N)cc4F)n3)cc2F)nc2c(F)cc(C(=O)O)cc21` [Example 285, 2-(4-(6-((4-cyano-2-fluorobenzyl)oxy)pyridin-2-yl)-2-fluorobenzyl)-4-fluoro-1-(2-methoxyethyl)-1H-benzo[d]imidazole-6-carboxylic acid], the “Predicted Hepatic Clearance (Pred. Cl.)” value in series [1] is less than 1.83 mL/min/kg. The concentration for a half-maximal effect (EC50) on GLP-1R (setting [2]) was 2.19 nM.
On to `N#Cc1ccc(COc2cccc(-c3ccn(Cc4nc5ccc(C(=O)O)cc5n4CC4(n5ccnn5)CC4)c(=O)c3)n2)c(F)c1` [Example 421, 1-((1-(1H-1,2,3-triazol-1-yl)cyclopropyl)methyl)-2-((6-((4-cyano-2-fluorobenzyl)oxy)-2′-oxo-[2,4′-bipyridin]-1′(2′H)-yl)methyl)-1H-benzo[d]imidazole-6-carboxylic acid], for which, in series [1], the “Predicted Hepatic Clearance (Pred. Cl.)” value was less than 1.83 mL/min/kg. Moreover, the EC50 on GLP-1R (setting [2]) came out at 327 nM.
For the compound `CC(C)(CF)Cn1c(Cc2ccc(-c3cccc(OCc4ccc(C#N)cc4F)n3)c(F)c2)nc2ccc(C(=O)O)cc21` [Example 294, 2-(4-(6-((4-cyano-2-fluorobenzyl)oxy)pyridin-2-yl)-3-fluorobenzyl)-1-(3-fluoro-2,2-dimethylpropyl)-1H-benzo[d]imidazole-6-carboxylic acid], in series [1], the “Predicted Hepatic Clearance (Pred. Cl.)” value is 8.3 mL/min/kg. Besides, the EC50 at GLP-1R (EC50 (nM)) came out at 0.75 nM.
As to `COCCn1c(Cc2cc(F)c(-c3cccc(OCc4ccc(F)nc4)n3)cc2F)nc2ccc(C(=O)O)cc21` [Example 812], the “Predicted Hepatic Clearance (Pred. Cl.)” value in series [1] is 1.83 mL/min/kg. Besides, the EC50 on GLP-1R (setting [2]) was 24.9 nM.
Consider `COCCn1c(Cc2ccc(-c3cccc(OCc4ccccc4SC)n3)cc2F)nc2ccc(C(=O)O)cc21` [Example 249, 2-(2-fluoro-4-(6-((2-(methylthio)benzyl)oxy)pyridin-2-yl)benzyl)-1-(2-methoxyethyl)-1H-benzo[d]imidazole-6-carboxylic acid], for which, in series [1], the “Predicted Hepatic Clearance (Pred. Cl.)” value is 15.5 mL/min/kg. Moreover, the EC50 on GLP-1R (setting [2]) came out at 172 nM.
For `N#Cc1cc(F)c(COc2nc(-c3cc(F)c(Cc4nc5c(F)cc(C(=O)O)cc5n4C[C@@H]4CCO4)cc3F)ccc2F)cc1F` [Example 766] the same measures were 3 mL/min/kg and 0.13 nM.
`CC1(C)CC(Cn2c(Cc3ccc(-c4cccc(OCc5ccc(C#N)cc5F)n4)cc3F)nc3ccc(C(=O)O)cc32)O1` (single isomer, unassigned) [Example 904, 2-(4-(6-((4-cyano-2-fluorobenzyl)oxy)pyridin-2-yl)-2-fluorobenzyl)-1-((4,4-dimethyloxetan-2-yl)methyl)-1H-benzo[d]imidazole-6-carboxylic acid]: the “Predicted Hepatic Clearance (Pred. Cl.)” value in series [1] was 11.2 mL/min/kg. In addition, the EC50 on GLP-1R (setting [2]) was 311 nM.
Consider `O=C(O)c1ccc2nc(Cc3c(F)cc(-c4cccc(OCc5ccc(C(F)F)cc5F)n4)cc3F)n(C[C@@H]3CCO3)c2c1` [Example 679], for which the “Predicted Hepatic Clearance (Pred. Cl.)” value in series [1] is 5 mL/min/kg. Also, the EC50 at GLP-1R (setting [2]) was determined as 0.06 nM.
On to `COCCn1c(Cc2cc(F)c(-c3cccc(OCc4ccc(C#N)cc4F)n3)cc2F)nc2ccc(C(=O)O)nc21` [Example 208, 2-(4-(6-((4-cyano-2-fluorobenzyl)oxy)pyridin-2-yl)-2,5-difluorobenzyl)-3-(2-methoxyethyl)-3H-imidazo[4,5-b]pyridine-5-carboxylic acid], for which the “Predicted Hepatic Clearance (Pred. Cl.)” value in series [1] is 3.83 mL/min/kg. For the same compound, the EC50 on GLP-1R (setting [2]) stood at 4.67 nM.
On to `COCCn1c(Cc2ccc(-c3cccc(O[C@H](C)c4ccccc4)n3)cc2F)nc2ccc(C(=O)O)cc21` [Example 515, (R)-2-(2-fluoro-4-(6-(1-phenylethoxy)pyridin-2-yl)benzyl)-1-(2-methoxyethyl)-1H-benzo[d]imidazole-6-carboxylic acid], for which the “Predicted Hepatic Clearance (Pred. Cl.)” value in series [1] is 7.5 mL/min/kg. Besides, the EC50 at GLP-1R (setting [2]) stood at 876 nM.
Regarding `COCCn1c(Cc2ccc(-c3cc(C)cc(OCc4ccc(C#N)cc4F)n3)cc2F)nc2ccc(C(=O)O)cc21` [Example 31, 2-(4-(6-((4-cyano-2-fluorobenzyl)oxy)-4-methylpyridin-2-yl)-2-fluorobenzyl)-1-(2-methoxyethyl)-1H-benzo[d]imidazole-6-carboxylic acid], in series [1], the “Predicted Hepatic Clearance (Pred. Cl.)” value was 4.67 mL/min/kg. Also, the EC50 at GLP-1R (setting [2]) turned out to be 32 nM.
For `N#CCC1(Cn2c(Cc3ccc(-c4ccc(F)c(OCc5ccc(C#N)cc5F)n4)cc3F)nc3c(F)cc(C(=O)O)cc32)CC1` [Example 165, 2-(4-(6-((4-cyano-2-fluorobenzyl)oxy)-5-fluoropyridin-2-yl)-2-fluorobenzyl)-1-((1-(cyanomethyl)cyclopropyl)methyl)-4-fluoro-1H-benzo[d]imidazole-6-carboxylic acid], the “Predicted Hepatic Clearance (Pred. Cl.)” value in series [1] is 4 mL/min/kg. Besides, the EC50 on GLP-1R (setting [2]) was determined as 0.01 nM.
`COCCn1c(Cc2cc(F)c(-c3cccc(OCc4ccc(C#N)cc4F)n3)cc2CO)nc2ccc(C(=O)O)cc21` [Example 753]: the “Predicted Hepatic Clearance (Pred. Cl.)” value in series [1] is 10.3 mL/min/kg. Besides, the EC50 on GLP-1R (setting [2]) was 0.74 nM.
Consider `O=C(O)c1cc(F)c2nc(Cc3cc(F)c(-c4cccc(OCc5ccc(C(F)(F)F)cc5F)n4)cc3F)n(Cc3ncco3)c2c1` [Example 783], for which the “Predicted Hepatic Clearance (Pred. Cl.)” value in series [1] was 1.83 mL/min/kg. Besides, the EC50 on GLP-1R (setting [2]) is 0.11 nM.
`CO[C@H]1COC[C@H]1n1c(Cc2cc(F)c(-c3cccc(OCc4ccc(C#N)cc4F)n3)cc2F)nc2ccc(C(=O)O)cc21` (single isomer, unassigned) [Example 891, 2-(4-(6-((4-cyano-2-fluorobenzyl)oxy)pyridin-2-yl)-2,5-difluorobenzyl)-1-(cis-4-methoxytetrahydrofuran-3-yl)-1H-benzo[d]imidazole-6-carboxylic acid]: in series [1], the “Predicted Hepatic Clearance (Pred. Cl.)” value was 6.67 mL/min/kg. For the same compound, the EC50 at GLP-1R (setting [2]) came to 0.25 nM.
As for `COC(=O)N1CC(Cn2c(Cc3cc(F)c(-c4cccc(OCc5ccc(C#N)cc5F)n4)cc3F)nc3ccc(C(=O)O)cc32)(OC)C1` [Example 824], in series [1], the “Predicted Hepatic Clearance (Pred. Cl.)” value was 7.67 mL/min/kg. The half-maximal effective concentration (EC50) on GLP-1R (setting [2]) came to 197 nM.
With `N#Cc1ccc(COc2cccc(-c3cc(F)c(Cc4nc5ccc(C(=O)O)cc5n4[C@H]4CC[C@@H]4O)cc3F)n2)c(F)c1` [Example 705], in series [1], the “Predicted Hepatic Clearance (Pred. Cl.)” value was 13.3 mL/min/kg. Besides, the EC50 at GLP-1R (setting [2]) stood at 73.2 nM.
Consider `COCCn1c(Cc2ccc(-c3cccc(OCc4ccccc4C(F)F)n3)cc2F)nc2ccc(C(=O)O)cc21` [Example 507, 2-(4-(6-((2-(difluoromethyl)benzyl)oxy)pyridin-2-yl)-2-fluorobenzyl)-1-(2-methoxyethyl)-1H-benzo[d]imidazole-6-carboxylic acid], for which, in series [1], the “Predicted Hepatic Clearance (Pred. Cl.)” value was 19.2 mL/min/kg. The EC50 at GLP-1R (setting [2]) came out at 361 nM.
